Measurements as given in patent publication US20030220524A1, “Sulfur containing compounds” (priority 2000, published 2003).

Columns and labels:
NB-4 leukemic cell line = experiment: TUNEL, flow cytometry; format: cell-based, human; details: 48 h
Experimental: (§1) Adherent cell lines were plated at 35×10^4 cells/60 cm^2 dish the day before exposure to compound. Suspension cells were seeded at 25×10^4 cells/mL in a 6 well dish (Falcon) the day of exposure to compound. Mononucleated, T-cell depleted normal bone marrow cells were seeded at 50×10^4 cells/mL in a 6 well dish the day of exposure to compound. Cells were exposed to solvent control or approximate MTT50 and MTT30 concentrations of the compound. After 48 h of exposure to the compound, cells were harvested and fixed with a final concentration of 4% formaldehyde. Fixed cells were stored at −20° C. in 70% ethanol for no more than 5 days. Approximately 10^5 cells were pelleted and labeled with 0.02 mM Biotin-dUTP and 12.5 U TdT enzyme in a 1× reaction buffer (200 mM potassium cacodylate, 25 mM Tris-HCl, 25 μg/mL bovine serum albumin, pH 6.6), 2.5 mM CoCl2 and 0.01 mM dTTP (Roche Molecular Biochemicals, Laval, QC, Canada) for 45 min at 37° C. Samples were washed and incubated in 200 μL of 1:1000 fluorescein isothiocyanate (FITC)-conjugated avidin (Sigma) in 4×SSC, 5% skim milk powder and 0.05% Tween-20 (Sigma). Following 1 h of mixing at room temperature, the samples were washed and resuspended in 500 μL of D-PBS containing 2.5 μg/mL DNase-free RNase (Boehringer Mannheim) and 10 μg/mL PI. Following a 30 min incubation at room temperature, cells were analyzed using a XL-MCL flow cytometer (Coulter Corporation, Miami, Fla.) and a FACScalibar cytometer (Becton Dickinson, San Jose, Calif.). Profiles shown are representative of one experiment.
as §1, with “? s” for “Cells”, “appr ? nate” for “approximate”, “of” for “of the”, “Pl.” for “PI.”

[1] = tested on: WI38 non-transformed diploid fibroblasts; experiment: TUNEL, flow cytometry; format: cell-based, human; details: 48 h
Experimental: as §1
as §1, with “? s” for “Cells”, “appr ? nate” for “approximate”, “of” for “of the”, “Pl.” for “PI.”

G2 leukemic cell line = experiment: TUNEL, flow cytometry; format: cell-based, human; details: 48 h
Experimental: as §1
as §1, with “? s” for “Cells”, “appr ? nate” for “approximate”, “of” for “of the”, “Pl.” for “PI.”

B1 leukemic cell line = experiment: TUNEL, flow cytometry; format: cell-based, human; details: 48 h
Experimental: as §1
as §1, with “? s” for “Cells”, “appr ? nate” for “approximate”, “of” for “of the”, “Pl.” for “PI.”

mammalian cells = experiment: Antiproliferative activity, summary grouping on the basis of MTT assays; format: cell-based; details: in words
Experimental: Adherent cells were seeded at 67×10^3 cells/mL in a 96 well plate (Falcon, Mississauga, Ontario) the day prior to exposure to compound. Suspension cells were seeded at 27×10^4 cells/mL in a 96 well plate the day of exposure to compound. Mononucleated, T-cell depleted normal bone marrow cells were seeded at 67×10^4 cells/mL in a 96 well plate the day of exposure to compound. Compounds and solvent control were added to cells and assayed in triplicate or sextuplet. Following 48 h of incubation at 37° C. with 5% CO2, 40 μL of a 5 mg/mL solution of 3-[4,5-dimethylthiazol-2-yl]-2,5-diphenyltetrazolium bromide (MTT) substrate (Sigma) in Dulbecco's phosphate-buffered saline (D-PBS) was added. After 4 h of incubation at 37° C. with 5% CO2, the resulting violet formazan precipitate was solubilized by the addition of 80 μL of a 0.01 M HCI, 10% sodium dodecyl sulfate (SDS; Sigma) solution overnight at 37° C. with 5% CO2. The plates were then analyzed using the BioRad Benchmark Microplate Reader (BioRad Laboratories, Hercules, Calif.) at 570 nm to determine the optical density of the samples. MTT data was analyzed using Prism 3.0 (GraphPad Software, Inc., San Diego, Calif.) by the Chou-Talalay method. MTT graphs shown are a representative experiment.
Initially, the efficacy of ten synthetic OSCs was explored for their antiproliferative activity against mammalian cells. […]

SMILES | % TUNEL +ve (NB-4 leukemic cell line; dose 50 uM) [%] | % TUNEL +ve (NB-4 leukemic cell line; dose 100 uM) [%] | % TUNEL +ve ([1]; dose 50 uM) [%] | % TUNEL +ve ([1]; dose 100 uM) [%] | % TUNEL +ve (G2 leukemic cell line; dose 50 uM) [%] | % TUNEL +ve (G2 leukemic cell line; dose 100 uM) [%] | % TUNEL +ve (B1 leukemic cell line; dose 50 uM) [%] | % TUNEL +ve (B1 leukemic cell line; dose 100 uM) [%] | Antiproliferative activity (grouping in Summary of Results and Notes to the data sets) (mammalian cells) | % TUNEL +ve ([1]; dose 25 uM) [%] | % TUNEL +ve (G2 leukemic cell line; dose 25 uM) [%] | % TUNEL +ve (B1 leukemic cell line; dose 25 uM) [%]
CSSCC(=O)c1ccccc1 [Compound P, phenacyl methyl disulphide] | 24 | 0.2 | 0.70 | 1.7 | 17 | 53 | 39 | 67 |  |  |  | 
CS(C)(=O)=O [Compound A, dimethyl sulfone] |  |  |  |  |  |  |  |  | No anti-proliferative properties |  |  | 
CCC(=O)OCSSc1ccccc1 [Compound Q, 1-phenyl-1,2-dithiapropyl propionate] | 16 |  | 0.2 |  | 58 |  | 78 |  |  | 4 | 23 | 32
CSSCCS(C)(=O)=O [F, 2,3,6-trithiaheptane 6,6,-dioxide] |  |  |  |  |  |  |  |  | Anti-proliferative Activity |  |  | 
CSCSSC [Compound N, 2,3,5-trithiahexane] | 17 | 19 | 0.7 | 2 | 18 | 19 | 49 | 44 |  |  |  | 
